Test results reported in PMC9597602, “Metal Complexes as Antifungals? From a Crowd-Sourced Compound Library to the First In Vivo Experiments” (JACS Au, 2022).
Like-named read-outs stand apart in the source and are kept apart here.

How the values were obtained:
[1] = tested on: Cryptococcus neoformans H99 ATCC 208821 type strain; experiment: Antifungal MIC assay; assay type: cell-based; settings: for MIC Cn: initial CO-ADD dose-response screening, ≥80% growth inhibition
Summary of the method: (§1)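 Yeasts grown 3 days on YPD agar at 30 °C; suspension diluted in YNB medium to a final 2.5 × 10^3 CFU/mL and exposed to compound at 35 °C for 36 h without shaking. MIC taken as lowest concentration giving ≥80% growth inhibition (CLSI M27 score 0–1).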

human red blood cells = assay type: cell-based
Procedure: Human whole blood (Australian Red Cross) was washed three times with 3 vol of 0.9% NaCl and resuspended in a concentration of 0.5 × 10^8 cells/mL, determined by a manual cell count in a Neubauer hemocytometer. […] After incubation, the plates were centrifuged at 1000g for 10 min to pellet cells and debris; 25 μL of the supernatant was then transferred to reading plates (384-well, polystyrene plated (PS), Corning CLS3680), with hemolysis determined by measuring the supernatant absorbance at […] (OD405) using cells without inhibitors as negative control and cells with 1% Triton X-100 (Sigma T8787) as positive control. […] Melittin (Sigma M2272) was used as internal control on each plate.

[2] = tested on: Escherichia coli ATCC 25922 FDA control strain; experiment: CO-ADD antibacterial MIC assay; assay type: cell-based; settings: initial CO-ADD dose-response screening; ≥80% growth inhibition
Procedure: (§2) For the all the bacterial assays, each bacterial strain was cultured in cation-adjusted Mueller Hinton broth (CAMHB; Bacto Laboratories 212322) at 37 °C overnight. A sample of each culture was then diluted 40-fold in fresh CAMHB and incubated at 37 °C for 1.5–3 h. The resultant mid-log phase cultures were diluted with CAMHB (CFU/mL measured by OD600) and then added to each well of the compound-containing plates (384-well non-binding surface (NBS) plates; Corning CLS3640), giving a cell density of 5 × 10^5 CFU/mL and a total volume of 50 μL. Plates were covered and incubated at 37 °C for 18 h without shaking. Inhibition of bacterial growth was determined by measuring the absorbance at 600 nm (OD600) using media only as negative control and bacteria without inhibitors as positive control. MIC values were determined as the lowest concentration at which the growth was inhibited by ≥80% (equivalent to no visible growth by the eye). Colistin sulfate (Sigma C4461) and vancomycin HCl (Sigma 861987) were used as internal controls on each plate for Gram-negative and Gram-positive bacteria, respectively. All compounds were tested as two technical replicates in two independent biological assays, n = 4 final data.

[3] = tested on: Pseudomonas aeruginosa ATCC 27853 QC control strain; experiment: CO-ADD antibacterial MIC assay; assay type: cell-based; settings: initial CO-ADD dose-response screening; ≥80% growth inhibition
Procedure: as §2

[4] = tested on: Acinetobacter baumannii ATCC 19606 type strain; experiment: CO-ADD antibacterial MIC assay; assay type: cell-based; settings: initial CO-ADD dose-response screening; ≥80% growth inhibition
Procedure: as §2

[5] = tested on: methicillin-resistant Staphylococcus aureus ATCC 43300; experiment: CO-ADD antibacterial MIC assay; assay type: cell-based; settings: initial CO-ADD dose-response screening; ≥80% growth inhibition
Procedure: as §2

[6] = tested on: Candida albicans ATCC 90028 NCCLS11; experiment: Antifungal MIC assay; assay type: cell-based; settings: for MIC Ca: initial CO-ADD dose-response screening, ≥80% growth inhibition
Summary of the method: as §1

[7] = tested on: Cryptococcus deuterogattii ATCC 32609 VGII; experiment: Antifungal MIC assay, extended panel; assay type: cell-based; settings: extended panel, second batch; ≥80 or ≥50% inhibition
Procedure: (§3) For the fungal assays, both fungi (yeast) strains were cultured for 3 days on Yeast Extract-Peptone Dextrose (YPD; Becton Dickinson 242720) agar at 30 °C. A yeast suspension of 1 × 10^6 to 5 × 10^6 CFU/mL (as determined by OD530) was prepared from five colonies from the agar plates, subsequently diluted with Yeast Nitrogen Base media (YNB; Becton Dickinson 233520), and added to each well of the compound containing plates (384-well plates, NBS; Corning CLS3640), giving a final cell density of 2.5 × 10^3 CFU/mL and a total volume of 50 μL. Plates were covered and incubated at 35 °C for 36 h without shaking. […] MIC values were recorded as the lowest concentration at which the growth was inhibited by ≥80%, equivalent to ″optically clear-to-slightly hazy″ or MIC score of 0–1 as per CLSI guidelines M27 Reference Method for Broth Dilution Antifungal Susceptibility Testing of Yeasts. […] Fluconazole (Sigma F8929) was used as internal control on each plate for all strains. All compounds were tested as two technical replicates in two to four independent biological assays, n = 4–8 final data.

[8] = tested on: Candida tropicalis ATCC 750; experiment: Antifungal MIC assay, extended panel; assay type: cell-based; settings: extended panel, second batch; ≥80 or ≥50% inhibition
Procedure: as §3

[9] = tested on: Candida glabrata ATCC 90030 NCCLS 84; experiment: Antifungal MIC assay, extended panel; assay type: cell-based; settings: extended panel, second batch; ≥80 or ≥50% inhibition
Procedure: as §3

[10] = tested on: Cryptococcus deuterogattii CBS7750 VGII; Serotype B; experiment: Antifungal MIC assay, extended panel; assay type: cell-based; settings: extended panel, second batch; ≥80 or ≥50% inhibition
Procedure: as §3

[11] = tested on: HEK-293 human embryonic kidney cells ATCC CRL-1573
Procedure: The cells were incubated together with the compounds for 20 h at 37 °C in 5% CO2. […] Tamoxifen (Sigma T5648) was used as internal control on each plate.

[12] = tested on: Candida auris CBS10913 JCM 15448; experiment: Antifungal MIC assay, extended panel; assay type: cell-based; settings: extended panel
Procedure: as §3, with “values were recorded as the lowest concentration at which the growth was inhibited by ≥80%, equivalent to ″optically clear-to-slightly hazy″ or MIC score of 0–1 as per CLSI guidelines M27” left out

[13] = tested on: Candida auris CBS12373 KCTC 17810; experiment: Antifungal MIC assay, extended panel; assay type: cell-based; settings: extended panel; for MIC: second batch, ≥80 or ≥50% inhibition, read-out: MIC* Candida auris CBS12373
Procedure: as §3, with “values were recorded as the lowest concentration at which the growth was inhibited by ≥80%, equivalent to ″optically clear-to-slightly hazy″ or MIC score of 0–1 as per CLSI guidelines M27” left out

[14] = tested on: Candida tropicalis ATCC 750; experiment: Antifungal MIC assay, extended panel; assay type: cell-based; settings: extended panel; 50% inhibition, MIC score 2
[15] = tested on: Cryptococcus deuterogattii CBS7750 VGII; Serotype B; experiment: Antifungal MIC assay, extended panel; assay type: cell-based; settings: extended panel; 50% inhibition, MIC score 2
[16] = tested on: Candida glabrata ATCC 90030 NCCLS 84; experiment: Antifungal MIC assay, extended panel; assay type: cell-based; settings: extended panel; 50% inhibition, MIC score 2
[17] = tested on: Cryptococcus deuterogattii ATCC 32609 VGII; experiment: Antifungal MIC assay, extended panel; assay type: cell-based; settings: extended panel; 50% inhibition, MIC score 2
[18] = initial CO-ADD screening, 1 h, 10% hemolysis
[19] = ranges obtained upon retesting, new batch
[20] = extended panel, second batch, ≥80 or ≥50% inhibition
[21] = extended panel, 50% inhibition, MIC score 2

Structure (SMILES) | MIC Cn [1] | RBC HC10 (human red blood cells; [18]) | RBC HC10 (human red blood cells; [19]) [µM] | MIC Ec [2] | MIC Pa [3] | MIC Ab [4] | MIC MRSA (Sa) [5] | MIC Ca [6] | MIC Cryptococcus deuterogattii ATCC 32609 [7] [µM] | MIC [9] [µM] | MIC [10] [µM] | MIC [13] [µM] | also measured
C1=CCCC=CCC1.[Cl][Pd][Cl] [Pd1] | 0.63 µM | >20 µM | 10 | >20 µM | >20 µM | >20 µM | >20 µM | 1.25 µM | 1.56 to 3.12 | 3.12 | ≤0.78 | ≤0.78 | MIC ([1]; extended panel, second batch, ≥80 or ≥50% inhibition, read-out: MIC* Cryptococcus neoformans ATCC 208821): ≤0.78 µM; MIC ([6]; extended panel, second batch, ≥80 or ≥50% inhibition, read-out: MIC* Candida albicans ATCC 90028): 3.12 µM; MIC [8]: 6.25 µM; CC50 ([11]; read-out: HEK293 CC50, ranges obtained upon retesting, new batch): > 100 µM; CC50 ([11]; read-out: HEK CC50, initial CO-ADD screening, 20 h): > 20 µM; cytotoxicity: none up to stated concentration ([11]; retest): > 100 µM; MIC ([12]; second batch, ≥80 or ≥50% inhibition, read-out: MIC* Candida auris CBS10913): ≤0.78 µM
Cc1c(C)c(-c2ccc(-c3ccccc3)cc2)[c-](C)c1C.Cc1ccccc1NC1=[NH+][Ir]([Cl])[NH]C(NS(=O)(=O)c2ccc([N+](=O)[O-])cc2)=N1 [Ir2] | 2 µg/mL | >32 µg/mL | 2 to 76 | >32 µg/mL | >32 µg/mL | >32 µg/mL | 1 µg/mL | 2 µg/mL | 0.098 to 0.195 | 0.098 | 0.024 | 0.024 | MIC Cryptococcus neoformans ATCC 208821 [1, 20]: 0.024 to 0.049 µM; MIC50 Cryptococcus neoformans ATCC 208821 [1, 21]: 0.024 to 0.098 µM; MIC50 Candida tropicalis ATCC 750 [14]: 0.098 to 0.195 µM; MIC Candida albicans ATCC 90028 [6, 20]: 0.049 to 0.098 µM; MIC50 Candida albicans ATCC 90028 [6, 21]: 0.049 to 0.098 µM; MIC Candida tropicalis ATCC 750 [8]: 0.098 to 0.195 µM; HEK CC50 ([11]; initial CO-ADD screening, 20 h): >32 µg/mL; MIC Candida auris CBS10913 ([12]; second batch, ≥80 or ≥50% inhibition): 0.049 to 0.098 µM; MIC50 Candida auris CBS10913 ([12]; 50% inhibition, MIC score 2): 0.049 to 0.098 µM; MIC50 Candida auris CBS12373 ([13]; 50% inhibition, MIC score 2): 0.024 µM; MIC50 Cryptococcus deuterogattii CBS7750 [15]: 0.012 to 0.024 µM; MIC50 Candida glabrata ATCC 90030 [16]: 0.098 to 0.195 µM; MIC50 Cryptococcus deuterogattii ATCC 32609 [17]: 0.098 to 0.195 µM
